# Literature values as cited in patent US20240139105A1, “PHARMACEUTICAL COMPOSITION CONTAINING GHRP-6” (CENTRO DE INGENIERÍA GENÉTICA Y BIOTECNOLOGÍA, priority 2021, published 2024).
# Where no end group is shown, it is not given here. [ ]: non-standard residue; d: D form.
# Legend:
# [1] = system: humans; settings: intravenous route
# [2] = system: pigs; settings: model of acute myocardial infarction in pigs
# [3] = system: Mongolia gerbil (Meriones unguiculatus); settings: model of ischemic cerebral infarction, in combination with EGF
substance,measurement,setting,value
"His-Trp-Ala-Trp-Phe-Lys-NH2 (H[dW]AW[dF]K-NH2) [GHRP-6, synthetic peptide, growth hormone secretagogue; the API of all formulations]",Doses referred as safe in humans,[1],≤ 2 µg/kg
same,Therapeutic dosage reported,[2],400 µg/kg
same,Therapeutic dosage reported,[3],around 600 μg/kg
